Results taken from PubChem BioAssay AID248 (DTP/NCI, 2004).
“And” between values parts separate entries of the source, which are not always exact repeats. Equal values may be shown once. Toxic doses and inconclusive results are not listed. No stated cut-off is given here; in the data, active means T/C of 150% or more; inactive means T/C below 125%.

Test system: L1210 leukemia ip in BDF1 mice, survival T/C
Assay: NCI In Vivo Anticancer Drug Screen. Data for tumor model L1210 Leukemia (intraperitoneal) in B6D2F1 (BDF1) mice
Conditions: higher = longer survival
How it was run: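 Read-out is survival time, reported as the treated-group measurement over the vehicle-control measurement.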

[1] = endpoint: mean survival time, dose: 50.0 mg/kg/injection, schedule: Q04DX002 (ip), vehicle: saline
[2] = endpoint: mean survival time, dose: 100.0 mg/kg/injection, schedule: Q01DX001 (ip), vehicle: carboxymethylcellulose (CMC)
[3] = endpoint: mean survival time, dose: 200.0 mg/kg/injection, schedule: Q01DX001 (ip), vehicle: carboxymethylcellulose (CMC)
[4] = endpoint: mean survival time, dose: 400.0 mg/kg/injection, schedule: Q01DX001 (ip), vehicle: carboxymethylcellulose (CMC)
[5] = endpoint: mean survival time, dose: 50.0 mg/kg/injection, schedule: Q01DX001 (ip), vehicle: carboxymethylcellulose (CMC)
[6] = endpoint: mean survival time, dose: 100.0 mg/kg/injection, schedule: Q04DX002 (ip), vehicle: Klucel (hydroxypropylcellulose) (HPC)
[7] = endpoint: mean survival time, dose: 200.0 mg/kg/injection, schedule: Q04DX002 (ip), vehicle: Klucel (hydroxypropylcellulose) (HPC)
[8] = endpoint: mean survival time, dose: 400.0 mg/kg/injection, schedule: Q04DX002 (ip), vehicle: Klucel (hydroxypropylcellulose) (HPC)
[9] = endpoint: mean survival time, dose: 100.0 mg/kg/injection, schedule: Q04DX003 (ip), vehicle: saline with Tween-80
[10] = endpoint: mean survival time, dose: 200.0 mg/kg/injection, schedule: Q04DX003 (ip), vehicle: saline with Tween-80
[11] = endpoint: mean survival time, dose: 400.0 mg/kg/injection, schedule: Q04DX003 (ip), vehicle: saline with Tween-80
[12] = endpoint: mean survival time, dose: 12.5 mg/kg/injection, schedule: Q04DX002 (ip), vehicle: saline
[13] = endpoint: mean survival time, dose: 25.0 mg/kg/injection, schedule: Q04DX002 (ip), vehicle: saline
[14] = endpoint: mean survival time, dose: 100.0 mg/kg/injection, schedule: Q01DX009 (ip), vehicle: Klucel (hydroxypropylcellulose) (HPC)
[15] = endpoint: mean survival time, dose: 100.0 mg/kg/injection, schedule: Q04DX003 (ip), vehicle: Klucel (hydroxypropylcellulose) (HPC)
[16] = endpoint: mean survival time, dose: 200.0 mg/kg/injection, schedule: Q01DX009 (ip), vehicle: Klucel (hydroxypropylcellulose) (HPC)
[17] = endpoint: mean survival time, dose: 200.0 mg/kg/injection, schedule: Q04DX003 (ip), vehicle: Klucel (hydroxypropylcellulose) (HPC)
[18] = endpoint: mean survival time, dose: 400.0 mg/kg/injection, schedule: Q04DX003 (ip), vehicle: Klucel (hydroxypropylcellulose) (HPC)

Measured: T/C

FC(F)(F)c1cccc(NC(=S)NC(Cc2ccccc2)c2ccccc2)c1 (centres undefined)
inactive: endpoint: mean survival time, dose: 100.0 mg/kg/injection, schedule: Q04DX002 (ip), vehicle: gum acacia 104 % of control | endpoint: mean survival time, dose: 200.0 mg/kg/injection, schedule: Q04DX002 (ip), vehicle: gum acacia 98 % of control | endpoint: mean survival time, dose: 400.0 mg/kg/injection, schedule: Q04DX002 (ip), vehicle: gum acacia 92 % of control

CC1(N(O)C(=O)NC2CCCCC2)CCCCC1
inactive: endpoint: mean survival time, dose: 100.0 mg/kg/injection, schedule: Q01DX001 (ip), vehicle: saline with Tween-80 101 % of control | endpoint: mean survival time, dose: 200.0 mg/kg/injection, schedule: Q01DX001 (ip), vehicle: saline with Tween-80 97 % of control

Cc1cc(C)nc(NCC(=O)O)n1
inactive: [1] 95 % of control | endpoint: mean survival time, dose: 100.0 mg/kg/injection, schedule: Q04DX002 (ip), vehicle: saline 95 % of control | endpoint: mean survival time, dose: 200.0 mg/kg/injection, schedule: Q04DX002 (ip), vehicle: saline 95 % of control

Cc1ccc(S(=O)(=O)Nc2ccccc2N=Cc2ccc(N(CCCl)CCCl)cc2C)cc1
inactive: [2] 101 % of control | [3] 103 % of control | [4] 86 % of control

CC12CCC(C(=O)C1=O)C2(C)C (centres undefined)
inactive: [5] 121 % of control | [2] 103 % of control | [6] 99 % of control | [3] 109 % of control | [7] 96 % of control | [4] 113 % of control | [8] 89 % of control

c1ccc2c(c1)CCC1=C2CCCC1
inactive: endpoint: mean survival time, dose: 100.0 mg/kg/injection, schedule: Q01DX009 (ip), vehicle: saline with Tween-80 96 % of control | [9] 101 % of control | endpoint: mean survival time, dose: 200.0 mg/kg/injection, schedule: Q01DX009 (ip), vehicle: saline with Tween-80 98 % of control | [10] 89 % of control | endpoint: mean survival time, dose: 400.0 mg/kg/injection, schedule: Q01DX009 (ip), vehicle: saline with Tween-80 91 % of control | [11] 92 % of control

CNC(=O)N(C(C)C)C1CCCCC1
inactive: endpoint: mean survival time, dose: 100.0 mg/kg/injection, schedule: Q04DX003 (ip), vehicle: other 102 % of control | endpoint: mean survival time, dose: 200.0 mg/kg/injection, schedule: Q04DX003 (ip), vehicle: other 96 % of control

O=C(c1c(F)c(F)c(F)c(F)c1F)N1CC1
inactive: endpoint: mean survival time, dose: 25.0 mg/kg/injection, schedule: Q01DX009 (ip), vehicle: water 96 % of control | endpoint: mean survival time, dose: 50.0 mg/kg/injection, schedule: Q01DX009 (ip), vehicle: water 93 % of control

Clc1cc(I)cc(Cl)c1Cl
inactive: endpoint: mean survival time, dose: 100.0 mg/kg/injection, schedule: Q04DX003 (ip), vehicle: acetone 108 % of control | endpoint: mean survival time, dose: 200.0 mg/kg/injection, schedule: Q04DX003 (ip), vehicle: acetone 103 % of control | endpoint: mean survival time, dose: 400.0 mg/kg/injection, schedule: Q04DX003 (ip), vehicle: acetone 91 % of control

COc1ccccc1-n1c(O)c(N=Nc2ccccc2C)c(=O)n(-c2ccccc2)c1=S
inactive: endpoint: mean survival time, dose: 100.0 mg/kg/injection, schedule: Q01DX001 (ip), vehicle: Klucel (hydroxypropylcellulose) (HPC) 110 % of control | endpoint: mean survival time, dose: 200.0 mg/kg/injection, schedule: Q01DX001 (ip), vehicle: Klucel (hydroxypropylcellulose) (HPC) 96 % of control | endpoint: mean survival time, dose: 400.0 mg/kg/injection, schedule: Q01DX001 (ip), vehicle: Klucel (hydroxypropylcellulose) (HPC) 96 % of control

C(Cc1ccccc1)=C1SCCCS1
inactive: [9] 99 % of control | [10] 96 % of control | [11] 96 % of control

CCOC(=O)CP(=O)(OC)c1ccccc1 (centres undefined)
inactive: endpoint: mean survival time, dose: 100.0 mg/kg/injection, schedule: Q01DX009 (ip), vehicle: saline 97 % of control | endpoint: mean survival time, dose: 200.0 mg/kg/injection, schedule: Q01DX009 (ip), vehicle: saline 120 % of control | endpoint: mean survival time, dose: 400.0 mg/kg/injection, schedule: Q01DX009 (ip), vehicle: saline 101 % of control

NC(CCl)=NCc1cccnc1
inactive: [12] 97 % of control | [13] 108 % of control

C=C1C(C(=O)OCC)C1C(=O)OCC (centres undefined)
inactive: endpoint: mean survival time, dose: 50.0 mg/kg/injection, schedule: Q04DX002 (ip), vehicle: saline with Tween-80 98 % of control | endpoint: mean survival time, dose: 100.0 mg/kg/injection, schedule: Q04DX002 (ip), vehicle: saline with Tween-80 103 % of control | endpoint: mean survival time, dose: 200.0 mg/kg/injection, schedule: Q04DX002 (ip), vehicle: saline with Tween-80 106 % of control | endpoint: mean survival time, dose: 400.0 mg/kg/injection, schedule: Q04DX002 (ip), vehicle: saline with Tween-80 98 % of control

CC1C[N-]CC(C)C1.CC1C[N-]CC(C)C1.[Cl][Pt+2]([Cl])([Cl])[Cl] (centres undefined)
inactive: endpoint: mean survival time, dose: 12.5 mg/kg/injection, schedule: Q01DX009 (ip), vehicle: saline 107 % of control | endpoint: mean survival time, dose: 12.5 mg/kg/injection, schedule: Q04DX003 (ip), vehicle: saline 87 % of control | endpoint: mean survival time, dose: 25.0 mg/kg/injection, schedule: Q01DX009 (ip), vehicle: saline 102 % of control | endpoint: mean survival time, dose: 25.0 mg/kg/injection, schedule: Q04DX003 (ip), vehicle: saline 87 % of control | endpoint: mean survival time, dose: 50.0 mg/kg/injection, schedule: Q04DX003 (ip), vehicle: saline 95 % of control and 106 % of control | endpoint: mean survival time, dose: 100.0 mg/kg/injection, schedule: Q04DX003 (ip), vehicle: saline 91 % of control

O=C(O)C1CC(O)CN1 (centres undefined)
inactive: [12] 110 % of control and 107 % of control | [13] 106 % of control and 97 % of control | [1] 100 % of control and 110 % of control | endpoint: median survival time, dose: 25.0 mg/kg/injection, schedule: Q01DX009 (ip), vehicle: saline 102 % of control | endpoint: median survival time, dose: 50.0 mg/kg/injection, schedule: Q01DX009 (ip), vehicle: saline 103 % of control | endpoint: median survival time, dose: 100.0 mg/kg/injection, schedule: Q01DX009 (ip), vehicle: saline 108 % of control | endpoint: median survival time, dose: 200.0 mg/kg/injection, schedule: Q01DX009 (ip), vehicle: saline 112 % of control | endpoint: median survival time, dose: 400.0 mg/kg/injection, schedule: Q01DX009 (ip), vehicle: saline 114 % of control

c1ccc(C2OC2c2ccccc2)cc1 (centres undefined)
inactive: [14] 98 % of control | [6] 107 % of control | [15] 110 % of control | [16] 102 % of control | [7] 110 % of control | [17] 100 % of control | endpoint: mean survival time, dose: 400.0 mg/kg/injection, schedule: Q01DX009 (ip), vehicle: Klucel (hydroxypropylcellulose) (HPC) 104 % of control | [8] 93 % of control | [18] 109 % of control

CCOc1ccc2[nH]c(=S)sc2c1
inactive: endpoint: mean survival time, dose: 50.0 mg/kg/injection, schedule: Q01DX009 (ip), vehicle: Klucel (hydroxypropylcellulose) (HPC) 93 % of control | [14] 102 % of control | [15] 105 % of control | [16] 86 % of control | [17] 89 % of control | [18] 100 % of control

O=C1C2=C(C(=O)c3ccccc31)C1C=CC2CC1
inactive: [5] 111 % of control | [2] 101 % of control

CCCCCCCC(=O)N1C2CN3C4=C(C(=O)C(N)=C(C)C4=O)C(COC(N)=O)C3(OC)C21 (centres undefined)
inactive: endpoint: mean survival time, dose: 6.6 mg/kg/injection, schedule: Q01DX001 (ip), vehicle: acetone 115 % of control | endpoint: mean survival time, dose: 9.9 mg/kg/injection, schedule: Q01DX001 (ip), vehicle: acetone 113 % of control
